For 1 molecule, Kd results are on record in BindingDB's records for doi:10.1074/jbc.M113.479303 (Wageningen University, 2013).

Molecules are shown by their SMILES.

Holding throughout (test): Substrate Binding Assay
Common to all, as to details: pH 8

The target in test [1] is T1, Probable salicylate monooxygenase (Rhodococcus jostii (strain RHA1), UniProt Q0SFK6).
T1 sequence (Q0SFK6 whole entry): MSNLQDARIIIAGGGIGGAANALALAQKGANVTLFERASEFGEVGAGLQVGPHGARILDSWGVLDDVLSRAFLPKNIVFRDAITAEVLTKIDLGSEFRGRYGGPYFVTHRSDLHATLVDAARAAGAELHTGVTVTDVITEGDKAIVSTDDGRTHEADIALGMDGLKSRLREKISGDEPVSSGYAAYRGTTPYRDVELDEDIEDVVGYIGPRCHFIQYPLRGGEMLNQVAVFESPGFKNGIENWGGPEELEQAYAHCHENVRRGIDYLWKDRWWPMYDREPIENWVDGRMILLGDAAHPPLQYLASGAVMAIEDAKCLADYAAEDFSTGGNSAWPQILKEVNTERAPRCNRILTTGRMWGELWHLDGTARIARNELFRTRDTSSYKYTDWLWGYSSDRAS
The procedure:
(§1) The interaction of 3HB6H (25 uM) with substrate analogs was studied in 50 mM Tris-SO4 (pH 8.0). Dissociation constants (Kd) of enzyme-substrate complexes were determined from flavin absorption difference spectra essentially as described elsewhere [Montersino et al., Biochim. Biophys. Acta, 1824:433-442].

For test [2], the target named is Probable salicylate monooxygenase [Y105F] (Rhodococcus jostii (strain RHA1), UniProt Q0SFK6, Y105F). On the procedure: as §1
The target in test [3] is Probable salicylate monooxygenase [H213A] (Rhodococcus jostii (strain RHA1), UniProt Q0SFK6, H213A). On the procedure: as §1

In the case of `O=C(O)c1cccc(O)c1`, the Kd stood at 48 µM in test [1], 644 µM in test [2] and 61 µM in test [3].

A word on the Kd: it is the concentration at which binding is half-saturated. A high value points to weaker binding.
